Data as given in patent US8883781B2, “Thienopyrimidines useful as modulators of ion channels” (Vertex Pharmaceuticals Incorporated, priority 2006, dated 2014).
Where two headings read alike, the source gives them in different places.

What was measured:
[1] = human, in vivo; cited from earlier work
NaV1.8 [2] = biological target: T1, NaV1.8 (Homo sapiens, UniProt Q9Y5Y9); assay: Activity against NaV 1.8 channel (Table 4); type: cell-based
Method: Compounds of the invention are useful as antagonists of voltage-gated sodium ion channels. Antagonist properties of test compounds were assessed as follows. Cells expressing the NaV of interest were placed into microtiter plates. After an incubation period, the cells were stained with fluorescent dyes sensitive to the transmembrane potential. The test compounds were added to the microtiter plate. The cells were stimulated with either a chemical or electrical means to evoke a NaV dependent membrane potential change from unblocked channels, which was detected and measured with trans-membrane potential-sensitive dyes. Antagonists were detected as a decreased membrane potential response to the stimulus. The optical membrane potential assay utilized voltage-sensitive FRET sensors described by Gonzalez and Tsien (See, Gonzalez, J. E. and R. Y. Tsien (1995) “Voltage sensing by fluorescence resonance energy transfer in single cells” Biophys J 69(4):1272-80, and Gonzalez, J. E. and R. Y. Tsien (1997) “Improved indicators of cell membrane potential that use fluorescence resonance energy transfer” Chem Biol 4(4): 269-77) in combination with instrumentation for measuring fluorescence change such as the Voltage/Ion Probe Reader (VIPR®) (See, Gonzalez, J. E., K. Oades, et al. (1999) “Cell-based assays and instrumentation for screening ion-channel targets” Drug Discov Today 4(9): 431-439).
24 hours before the assay on VIPR, CHO cells endogenously expressing a NaV 1.2 type voltage-gated NaV are seeded in 96-well poly-lysine coated plates at 60,000 cells per well. Other subtypes are performed in an analogous mode in a cell line expressing the NaV of interest.
The following is an example of how NaV1.3 inhibition activity is measured using the optical membrane potential method#2. Other subtypes are performed in an analogous mode in a cell line expressing the NaV of interest.
HEK293 cells stably expressing NaV1.3 are plated into 96-well microtiter plates. After an appropriate incubation period, the cells are stained with the voltage sensitive dyes CC2-DMPE/DiSBAC2(3) as follows.
Patch clamp electrophysiology was used to assess the efficacy and selectivity of sodium channel blockers in dorsal root ganglion neurons. Rat neurons were isolated from the dorsal root ganglions and maintained in culture for 2 to 10 days in the presence of NGF (50 ng/ml) (culture media consisted of NeurobasalA supplemented with B27, glutamine and antibiotics). Small diameter neurons (nociceptors, 8-12 μm in diameter) have been visually identified and probed with fine tip glass electrodes connected to an amplifier (Axon Instruments). The “voltage clamp” mode has been used to assess the compound's IC50 holding the cells at −60 mV. In addition, the “current clamp” mode has been employed to test the efficacy of the compounds in blocking action potential generation in response to current injections. The results of these experiments have contributed to the definition of the efficacy profile of the compounds.
TTX-resistant sodium currents were recorded from DRG somata using the whole-cell variation of the patch clamp technique. Recordings were made at room temperature (˜22° C.) with thick walled borosilicate glass electrodes (WPI; resistance 3-4 MΩ) using an Axopatch 200B amplifier (Axon Instruments). After establishing the whole-cell configuration, approximately 15 minutes were allowed for the pipette solution to equilibrate within the cell before beginning recording. Currents were lowpass filtered between 2-5 kHz and digitally sampled at 10 kHz. Series resistance was compensated 60-70% and was monitored continuously throughout the experiment. The liquid junction potential (−7 mV) between the intracellular pipette solution and the external recording solution was not accounted for in the data analysis. Test solutions were applied to the cells with a gravity driven fast perfusion system (SF-77; Warner Instruments). […]

NaV1.9 = NaV1.9 (Homo sapiens, UniProt Q9UI33); conditions: read-out: TTX IC50; cited from earlier work
NaV1.8 [3] = biological target: T1, NaV1.8; conditions: read-out: TTX IC50; cited from earlier work
NaV1.2 = NaV1.2 (Homo sapiens, UniProt Q99250); conditions: read-out: TTX IC50; cited from earlier work
NaV1.3 = NaV1.3 (Homo sapiens, UniProt Q9NY46); conditions: read-out: TTX IC50; cited from earlier work
NaV1.6 = NaV1.6 (Homo sapiens, UniProt Q9UQD0); conditions: read-out: TTX IC50; cited from earlier work
NaV1.1 = NaV1.1 (Homo sapiens, UniProt P35498); conditions: read-out: TTX IC50; cited from earlier work

T1 sequence (Q9Y5Y9 whole entry, looked up): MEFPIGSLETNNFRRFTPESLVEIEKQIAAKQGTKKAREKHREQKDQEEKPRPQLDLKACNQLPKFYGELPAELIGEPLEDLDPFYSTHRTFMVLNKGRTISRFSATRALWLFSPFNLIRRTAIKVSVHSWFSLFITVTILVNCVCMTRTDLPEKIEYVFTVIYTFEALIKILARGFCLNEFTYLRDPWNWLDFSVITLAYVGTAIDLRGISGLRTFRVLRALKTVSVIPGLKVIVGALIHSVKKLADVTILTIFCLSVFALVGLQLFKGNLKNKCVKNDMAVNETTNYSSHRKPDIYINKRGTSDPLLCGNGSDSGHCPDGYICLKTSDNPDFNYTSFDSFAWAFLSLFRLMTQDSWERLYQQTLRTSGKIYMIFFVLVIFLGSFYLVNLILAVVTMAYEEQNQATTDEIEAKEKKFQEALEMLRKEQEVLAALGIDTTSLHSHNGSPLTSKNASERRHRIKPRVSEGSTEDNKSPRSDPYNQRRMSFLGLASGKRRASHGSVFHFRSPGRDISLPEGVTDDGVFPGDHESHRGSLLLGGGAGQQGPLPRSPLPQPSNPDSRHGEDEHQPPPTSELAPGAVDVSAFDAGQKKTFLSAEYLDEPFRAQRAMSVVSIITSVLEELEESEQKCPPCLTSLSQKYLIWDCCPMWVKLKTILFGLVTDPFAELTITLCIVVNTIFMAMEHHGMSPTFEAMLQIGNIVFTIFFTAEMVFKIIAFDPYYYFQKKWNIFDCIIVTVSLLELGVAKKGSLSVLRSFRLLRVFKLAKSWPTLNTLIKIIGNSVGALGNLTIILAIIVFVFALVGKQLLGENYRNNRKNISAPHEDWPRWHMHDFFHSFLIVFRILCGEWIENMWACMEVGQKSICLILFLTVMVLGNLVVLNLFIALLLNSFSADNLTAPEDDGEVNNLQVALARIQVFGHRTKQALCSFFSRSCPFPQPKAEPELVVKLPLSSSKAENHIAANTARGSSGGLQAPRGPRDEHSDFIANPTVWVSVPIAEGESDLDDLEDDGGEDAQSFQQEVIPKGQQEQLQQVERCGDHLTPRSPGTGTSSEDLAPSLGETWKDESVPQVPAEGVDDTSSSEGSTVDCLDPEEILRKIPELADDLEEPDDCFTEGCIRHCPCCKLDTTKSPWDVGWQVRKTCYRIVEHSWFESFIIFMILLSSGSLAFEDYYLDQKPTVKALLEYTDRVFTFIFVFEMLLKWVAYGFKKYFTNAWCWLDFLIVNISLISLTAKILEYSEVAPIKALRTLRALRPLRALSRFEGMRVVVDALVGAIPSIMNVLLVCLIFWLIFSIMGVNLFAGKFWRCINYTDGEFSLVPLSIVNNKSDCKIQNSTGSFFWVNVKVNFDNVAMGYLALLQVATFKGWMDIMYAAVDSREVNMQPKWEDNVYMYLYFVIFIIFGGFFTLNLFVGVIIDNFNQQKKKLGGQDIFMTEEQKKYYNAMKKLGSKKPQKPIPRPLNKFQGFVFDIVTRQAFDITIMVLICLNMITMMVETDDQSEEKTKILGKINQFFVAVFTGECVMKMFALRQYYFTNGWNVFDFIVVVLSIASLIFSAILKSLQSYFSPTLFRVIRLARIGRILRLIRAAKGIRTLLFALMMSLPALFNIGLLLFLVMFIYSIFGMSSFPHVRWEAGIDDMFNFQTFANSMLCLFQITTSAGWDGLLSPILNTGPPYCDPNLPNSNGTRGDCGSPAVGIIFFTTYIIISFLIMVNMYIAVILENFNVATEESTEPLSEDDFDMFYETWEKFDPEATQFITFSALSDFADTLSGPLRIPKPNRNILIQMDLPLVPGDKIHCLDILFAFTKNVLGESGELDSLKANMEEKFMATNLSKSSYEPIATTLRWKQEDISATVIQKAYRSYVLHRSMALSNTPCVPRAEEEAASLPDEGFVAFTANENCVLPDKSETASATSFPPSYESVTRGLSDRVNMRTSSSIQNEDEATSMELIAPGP
Sequence of NaV1.2 (Q99250 whole entry, looked up): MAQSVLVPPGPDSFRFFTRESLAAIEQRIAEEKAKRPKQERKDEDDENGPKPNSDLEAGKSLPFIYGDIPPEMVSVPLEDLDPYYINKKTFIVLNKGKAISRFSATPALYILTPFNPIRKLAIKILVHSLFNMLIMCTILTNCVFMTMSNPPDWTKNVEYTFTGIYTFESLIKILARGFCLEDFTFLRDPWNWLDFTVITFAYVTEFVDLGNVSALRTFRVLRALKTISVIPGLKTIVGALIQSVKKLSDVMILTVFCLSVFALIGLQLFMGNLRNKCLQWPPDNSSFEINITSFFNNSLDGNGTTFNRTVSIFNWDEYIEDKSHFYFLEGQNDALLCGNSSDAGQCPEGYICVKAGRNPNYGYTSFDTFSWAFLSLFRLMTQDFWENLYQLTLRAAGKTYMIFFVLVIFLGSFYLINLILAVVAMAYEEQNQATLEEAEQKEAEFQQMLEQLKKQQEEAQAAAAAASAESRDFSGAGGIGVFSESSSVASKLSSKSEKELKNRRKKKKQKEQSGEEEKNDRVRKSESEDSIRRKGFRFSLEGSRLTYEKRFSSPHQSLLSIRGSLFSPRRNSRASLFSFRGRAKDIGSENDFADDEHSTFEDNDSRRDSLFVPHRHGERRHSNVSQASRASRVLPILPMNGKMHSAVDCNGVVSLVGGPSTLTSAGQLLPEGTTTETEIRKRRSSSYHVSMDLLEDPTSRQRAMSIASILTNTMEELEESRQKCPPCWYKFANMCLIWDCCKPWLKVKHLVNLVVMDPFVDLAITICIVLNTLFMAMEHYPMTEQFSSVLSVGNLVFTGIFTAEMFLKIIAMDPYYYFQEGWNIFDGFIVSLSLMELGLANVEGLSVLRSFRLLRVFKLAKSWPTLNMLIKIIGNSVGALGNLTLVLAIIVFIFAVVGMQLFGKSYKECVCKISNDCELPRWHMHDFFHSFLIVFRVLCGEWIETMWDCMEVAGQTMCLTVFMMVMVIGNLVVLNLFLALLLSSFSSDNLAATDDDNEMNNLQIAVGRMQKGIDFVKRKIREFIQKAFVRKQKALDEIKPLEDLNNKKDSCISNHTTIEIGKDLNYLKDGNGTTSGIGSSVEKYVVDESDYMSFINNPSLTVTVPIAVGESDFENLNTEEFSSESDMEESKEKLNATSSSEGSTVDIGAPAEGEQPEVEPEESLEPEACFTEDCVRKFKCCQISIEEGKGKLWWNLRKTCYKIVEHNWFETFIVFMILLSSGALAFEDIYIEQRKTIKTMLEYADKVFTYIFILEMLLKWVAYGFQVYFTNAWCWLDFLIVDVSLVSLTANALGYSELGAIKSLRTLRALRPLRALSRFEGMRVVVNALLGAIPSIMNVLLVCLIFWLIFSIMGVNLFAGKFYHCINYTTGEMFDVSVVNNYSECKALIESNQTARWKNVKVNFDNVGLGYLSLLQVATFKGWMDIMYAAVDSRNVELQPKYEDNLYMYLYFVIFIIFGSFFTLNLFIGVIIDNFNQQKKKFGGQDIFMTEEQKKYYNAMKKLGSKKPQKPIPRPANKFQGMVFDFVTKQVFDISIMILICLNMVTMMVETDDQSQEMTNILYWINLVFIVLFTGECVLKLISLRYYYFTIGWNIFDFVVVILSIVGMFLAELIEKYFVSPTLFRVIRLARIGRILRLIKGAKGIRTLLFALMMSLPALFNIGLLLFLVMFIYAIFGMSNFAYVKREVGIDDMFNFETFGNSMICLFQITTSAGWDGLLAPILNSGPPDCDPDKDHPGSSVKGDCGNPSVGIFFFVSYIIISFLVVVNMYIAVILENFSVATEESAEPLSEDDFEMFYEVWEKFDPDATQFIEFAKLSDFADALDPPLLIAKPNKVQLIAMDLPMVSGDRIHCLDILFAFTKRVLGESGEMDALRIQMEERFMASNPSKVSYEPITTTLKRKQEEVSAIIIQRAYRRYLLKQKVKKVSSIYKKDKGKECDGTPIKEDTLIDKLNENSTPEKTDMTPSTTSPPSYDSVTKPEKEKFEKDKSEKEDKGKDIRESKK

## NCC1(CC(=O)O)CCCCC1 [Gabapentin]
[1]
  patients in whom it works: 60%

## CC(C)COC(=O)N1CCN(c2nc(-c3ccccc3O)nc3ccsc23)CC1 [Compound 7, Isobutyl 4-(2-(2-hydroxyphenyl)thieno[3,2-d]pyrimidin-4-yl)piperazine-1-carboxylate]
NaV1.8 [2]
  IC50: < 5 µM

## NC1=N[C@H](O)[C@H]2[C@H]3O[C@]4(O)O[C@@H]([C@@H](O)[C@@]2(N1)[C@@H]4O)[C@]3(O)CO [TTX, tetrodotoxin]
NaV1.9
  IC50: 1000 nM
NaV1.8 [3]
  IC50: > 50 µM
NaV1.2
  IC50: 10 nM
NaV1.3
  IC50: 15 nM
NaV1.6
  IC50: 6 nM
NaV1.1
  IC50: 10 nM

## Oc1ccccc1-c1nc(N2CCOCC2)c2sc(-c3ccc(F)cc3)cc2n1 [Compound 1, 2-(6-(4-Fluorophenyl)-4-morpholinothieno[3,2-d]pyrimidin-2-yl)phenol]
NaV1.8 [2]
  IC50: > 20 µM

## Cc1csc2nc(-c3ccccc3O)nc(N3CCN(C(=O)OCC(C)C)CC3)c12 [Compound 4, Isobutyl 4-(2-(2-hydroxyphenyl)-5-methylthieno[2,3-d]pyrimidin-4-yl)piperazine-1-carboxylate]
NaV1.8 [2]
  IC50: > 20 µM

## CCCCS(=O)(=O)N1CCN(c2nc(-c3ccccc3O)nc3scc(C)c23)CC1 [Compound 5, 2-(4-(4-(butylsulfonyl)piperazin-1-yl)-5-methylthieno[2,3-d]pyrimidin-2-yl)phenol]
NaV1.8 [2]
  IC50: > 20 µM

## Cc1csc2nc(-c3ccccc3O)nc(N3CCC(NC(=O)OCC(C)C)CC3)c12 [Compound 6, Isobutyl 1-(2-(2-hydroxyphenyl)-5-methylthieno[2,3-d]pyrimidin-4-yl)piperidin-4-ylcarbamate]
NaV1.8 [2]
  IC50: > 20 µM

## Cc1cc(C)c2c(n1)sc1c(N3CCOCC3)nc(-c3ccccc3O)nc12 [Compound 2]
NaV1.8 [2]
  IC50: > 20 µM

## CC(C)COC(=O)NC1CCN(c2nc(-c3ccccc3O)nc3ccsc23)CC1 [Compound 8, Isobutyl 1-(2-(2-hydroxyphenyl)thieno[3,2-d]pyrimidin-4-yl)piperidin-4-ylcarbamate]
NaV1.8 [2]
  IC50: < 5 µM
